Experiment [1] concerns ovalbumin-sensitized/-challenged Brown-Norway rat. Nature of the experiment: Late inflammatory airway reaction in the ovalbumin-sensitized/-challenged Brown-Norway rat (BAL). The note with it: summary of the table; i.t.; Roflumilast 0.3 μmol/kg, Pumafentrine 3 μmol/kg, Salmeterol 3 pmol/kg [sic].
Description: Sensitization was done by simultaneous injection of Bordetella pertussis suspension i.p. and OVA/AHG suspension s.c. on day 1, 14 and 21. 28 days after start of sensitization, conscious Brown-Norway rats were challenged by inhalation of the aerosolized OVA solution for 1 h (˜20 ml/h). Non-challenged, only sensitized animals were used as baseline control. The drugs (thoroughly mixed with lactose) or the placebo control (lactose) were administered intratracheally (i.t.) as dry powders 1 h before OVA-challenge. 48 h later, OVA-challenged or non-challenged animals were anaesthetized and bronchoalveolar lavage (BAL) was performed using 3×4 ml BAL buffer per animal. The number of total cells and eosinophils in the BAL fluid, and the concentration of protein in the cell-free BAL fluid were determined. Drug-induced relative changes were calculated and statistically analyzed by the Jonckheere Terpstra test.
For experiment [2], the system named is PDE3. In words: PDE3 inhibition (PDE3/4 IC50). Format: biochemical. Particulars: first value of PDE3/4 pair.
Experiment [3] relates to PDE4. In words: PDE4 inhibition (PDE3/4 IC50). Format: biochemical. The note with it: second value of PDE3/4 pair.

Molecules are shown by their SMILES.

Consider three compounds from patent publication US7056936B2, “Synergistic combination” (Altana Pharma AG, priority 1998, dated 2006).

The IC50 is the concentration at which inhibition is half-maximal. Higher therefore signals weaker potency.

Take `OCc1cc(C(O)CNCCCCCCOCCCCc2ccccc2)ccc1O` (single isomer, unassigned; (+)) [Salmeterol, (+)-4-hydroxy-α^1-[[[6-(4-phenylbutoxy)hexyl]amino]methyl]-1,3-benzenedimethanol]: the “effect on cell infiltration and protein accumulation in BAL fluid, in words” value (“effect” below) in experiment [1] is listed as “exhibited inhibitory effects”.

In the case of `CCOc1cc2c(cc1OC)C(c1ccc(C(=O)N(C(C)C)C(C)C)cc1)=N[C@@H]1CCN(C)C[C@H]21` [Pumafentrine], the IC50 is 28 nM in experiment [2] and 7 nM in experiment [3]. Moreover, in experiment [1], the “effect” value is “did not show any significant effects”.

Take `O=C(Nc1c(Cl)cncc1Cl)c1ccc(OC(F)F)c(OCC2CC2)c1` [Roflumilast]: the 50% inhibitory concentration (IC50) in experiment [2] is > 10000 nM; in experiment [3], 0.7 nM. In addition, the “effect” value in experiment [1] was “did not show any significant effects”.
